In patent US9120749B2, “Quinoline derivatives and MELK inhibitors containing the same” (ONCOTHERAPY SCIENCE, INC., priority 2010, dated 2015):
Counter-ions that a name gives are not always drawn.

What was measured:
[1] = system: HT-1197 cells; test: Cell-based assay: anti-proliferative activity, Cell Counting Kit-8, 72 hours (HT-1197, negative control without MELK expression); details: Homo sapiens, HT1197, 72 h, HT1197 cells, no MELK expression (negative control); Cell Counting Kit-8 at 72 hours
In short: (§1)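 Proliferation read with Cell Counting Kit-8 after 72 hours of inhibitor treatment, from seeding of 2,000–3,000 cells/well. Lines: T47D, A549, BT-549; HT-1197, lacking MELK by western blot, served as negative control. IC50 derived.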

[2] = biological target: MELK (Homo sapiens, UniProt Q14680); test: Kinase assay: MELK activity, phosphorylation of FITC-labeled histone H3 peptide measured by IMAP fluorescence polarization; type: biochemical; details: 50 micro-M ATP, FITC-labeled histone H3 peptide substrate, IMAP fluorescence polarization; read-out: IC50 (μM) (kinase assay)
In short: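 Fluorescence polarization was measured 0.5 h (room temperature) after quenching with threefold volume of progressive binding solution. Test compounds from 12.5 mM DMSO stocks were assayed at 1% DMSO.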

[3] = system: BT-549 cells; test: Cell-based assay: anti-proliferative activity, Cell Counting Kit-8, 72 hours (BT-549); details: Homo sapiens, BT-549, 72 h, BT549 cells, MELK-expressing; Cell Counting Kit-8 at 72 hours
Procedure: To evaluate the expression status of MELK in several cell lines, western blot analysis was performed using crude cell lysate collected from those cells. Anti-MELK antibody (clone 31, BD Biosciences) was used to visualize the expression.
Active candidate inhibitors against MELK were evaluated for their target-specific cytotoxicity using T47D, A549, BT-549, and HT-1197 cells was used for negative control. 100 micro-L of cell suspension was seeded onto 96-well microtiter plate (ViewPlate-96FTC, PerkinElmer). The initial cell concentration of T47D, A549, BT-549, and HT-1197 were 3,000 cells/well, 2,000 cells/well and 2,500 cells/well, respectively. Cellular growth was determined using Cell Counting Kit-8 (DOJINDO) at 72 hours after the exposure of the candidate inhibitors. […] Accurate IC50 values were calculated as described previously.

[4] = system: T47D cells; test: Cell-based assay: anti-proliferative activity, Cell Counting Kit-8, 72 hours (T47D); details: Homo sapiens, T47D, 72 h, MELK-expressing, Cell Counting Kit-8 at 72 hours
In short: as §1

[5] = system: A549 cells; test: Cell-based assay: anti-proliferative activity, Cell Counting Kit-8, 72 hours (A549); details: MELK-expressing, Cell Counting Kit-8 at 72 hours
In short: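 A549 cells were seeded in 96-well plates and exposed to candidate inhibitors for 72 hours. Cell growth was then measured with Cell Counting Kit-8, and IC50 values were calculated from the resulting growth data.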

Chain of MELK (Q14680 whole entry, looked up): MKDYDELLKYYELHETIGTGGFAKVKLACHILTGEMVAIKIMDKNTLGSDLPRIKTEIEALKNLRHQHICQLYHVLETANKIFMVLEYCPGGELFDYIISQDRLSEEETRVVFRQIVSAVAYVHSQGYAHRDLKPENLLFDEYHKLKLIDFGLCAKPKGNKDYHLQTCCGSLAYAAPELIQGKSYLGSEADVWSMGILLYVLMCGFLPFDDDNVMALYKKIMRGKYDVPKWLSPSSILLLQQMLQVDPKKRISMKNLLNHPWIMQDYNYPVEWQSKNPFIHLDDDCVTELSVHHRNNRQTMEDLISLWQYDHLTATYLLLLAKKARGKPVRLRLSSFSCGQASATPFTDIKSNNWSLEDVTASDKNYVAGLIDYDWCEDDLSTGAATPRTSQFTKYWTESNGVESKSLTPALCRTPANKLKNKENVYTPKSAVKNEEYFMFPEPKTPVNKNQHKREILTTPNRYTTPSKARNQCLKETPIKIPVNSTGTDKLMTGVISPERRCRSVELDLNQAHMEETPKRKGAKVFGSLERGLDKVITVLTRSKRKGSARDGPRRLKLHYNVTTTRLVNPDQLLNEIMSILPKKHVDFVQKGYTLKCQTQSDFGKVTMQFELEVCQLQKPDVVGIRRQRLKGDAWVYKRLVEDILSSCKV

Compound | IC50 [1] | IC50 [2] | IC50 [3] | IC50 [4] | IC50 ([5]; Homo sapiens, A549, 72 h) | IC50 [5]
O=C(c1cnc2ccc(-c3ccc(O)c(OC(F)(F)F)c3)cc2c1N1CCC(CN2CCCC2)CC1)C1CC1 [Example 313, Cyclopropyl{6-[4-hydroxy-3-(trifluoromethoxy)phenyl]-4-[4-(pyrrolidin-1-ylmethyl]piperidin-1-yl}quinolin-3-yl)methanone] | 3.2 µM | 0.012 µM | 1.3 µM | 0.67 µM | 0.8 µM | –
CN(C)[C@H]1CC[C@H](Nc2c(C(=O)C3CC3)cnc3cc(F)c(-c4cc(F)c(O)c(F)c4)cc23)CC1 [Example 294, Cyclopropyl{6-(3,5-difluoro-4-hydroxyphenyl)-4-[trans-4-(dimethylamino)cyclohexylamino]-7-fluoroquinolin-3-yl}methanone] | 1.5 µM | 0.042 µM | 0.55 µM | 0.68 µM | 0.43 µM | –
COc1cc(-c2ccc3ncc(C(=O)C4CC4)c(N4CCC(CN5CCCC5)CC4)c3c2)cc(F)c1O [Example 307, Cyclopropyl{6-(3-fluoro-4-hydroxy-5-methoxyphenyl)-4-[4-(pyrrolidin-1-ylmethyl)piperidin-1-yl]quinolin-3-yl}methanone] | 3 µM | 0.0041 µM | 1.2 µM | 0.79 µM | 0.53 µM | –
COc1cc(-c2ccc3ncc(C(=O)C4CC4)c(N4CCC(N5CCN(C)CC5)CC4)c3c2)cc(Cl)c1O [Example 351, {6-(3-Chloro-4-hydroxy-5-methoxyphenyl)-4-[4-(4-methylpiperazin-1-yl)piperidin-1-yl]quinolin-3-yl}(cyclopropyl)methanone] | 3 µM | 0.0022 µM | 0.67 µM | 0.34 µM | 0.33 µM | –
CN(C)[C@H]1CC[C@H](Nc2c(C(=O)C3CC3)cnc3ccc(-c4cc(Cl)c(O)c(Cl)c4)cc23)CC1 [Example 263, Cyclopropyl{6-(3,5-dichloro-4-hydroxyphenyl)-4-[trans-4-(dimethylamino)cyclohexylamino]quinolin-3-yl}methanone] | 1.2 µM | 0.0017 µM | 0.41 µM | 0.13 µM | 0.2 µM | –
CCN(CC)C1CCC(Nc2c(C(=O)C3CC3)cnc3ccc(-c4cc(Cl)c(O)c(OC)c4)cc23)CC1 (stereo not shown) [Example 185(a), {6-(3-Chloro-4-hydroxy-5-methoxyphenyl)-4-[4-(diethylamino)cyclohexylamino]quinolin-3-yl}(cyclopropyl)methanone] | 6.9 µM | 0.0026 µM | 2 µM | 0.59 µM | – | 0.42 µM
COc1cc(-c2ccc3ncc(C(C)=O)c(N4CCC(CN(C)C)CC4)c3c2)cc(Cl)c1O [Example 305, 1-[6-(3-chloro-4-hydroxy-5-methoxyphenyl)-4-{4-[(dimethylamino)methyl]piperidin-1-yl}quinolin-3-yl]ethanone] | 3.6 µM | 0.0022 µM | 0.33 µM | 0.21 µM | 0.14 µM | –
CC(C)C(=O)c1cnc2ccc(-c3cc(F)c(O)c(Cl)c3)cc2c1N1CCC(CN2CCCC2)CC1 [Example 323, 1-{6-(3-Chloro-5-fluoro-4-hydroxyphenyl)-4-[4-(pyrrolidin-1-ylmethyl)piperidin-1-yl]quinolin-3-yl}-2-methylpropan-1-one] | 1.2 µM | 0.013 µM | 1.5 µM | 0.63 µM | 0.87 µM | –
COc1cc(-c2ccc3ncc(C(=O)C4CC4)c(N4CCC(C(C)N(C)C)CC4)c3c2)ccc1O (stereo not shown) [Example 187, Cyclopropyl(4-{4-[1-(dimethylamino)ethyl]piperidin-1-yl}-6-(4-hydroxy-3-methoxyphenyl)quinolin-3-yl)methanone] | 2.2 µM | 0.0034 µM | 2 µM | 0.44 µM | 0.65 µM | –
COc1cc(-c2ccc3ncc(C(=O)C4CC4)c(NC45CC6CC(CC(N)(C6)C4)C5)c3c2)cc(Cl)c1O [Example 309, {6-(3-Chloro-4-hydroxy-5-methoxyphenyl)-4-[(3-amino)adamantylamino]quinolin-3-yl}(cyclopropyl)methanone] | 0.5 µM | 0.0087 µM | 0.49 µM | 0.32 µM | 0.28 µM | –
CCN(CC)C1CCC(Nc2c(S(C)(=O)=O)cnc3ccc(-c4cc(Cl)c(O)c(OC)c4)cc23)CC1 (stereo not shown) [Example 240, 2-Chloro-4-{4-[4-(diethylamino)cyclohexylamino]-3-(methylsulfonyl)quinolin-6-yl}-6-methoxyphenol dihydrochloride] | 3.8 µM | 0.0053 µM | 1.5 µM | 0.97 µM | 0.78 µM | –
COc1cc(-c2ccc3ncc(C(=O)C4CC4)c(N4CCC(CN5CCCC5)CC4)c3c2)cc(Cl)c1O [Example 280, {6-(3-Chloro-4-hydroxy-5-methoxyphenyl)-4-[4-(pyrrolidin-1-ylmethyl)piperidin-1-yl]quinolin-3-yl}(cyclopropyl)methanone] | 2.9 µM | 0.0017 µM | 0.71 µM | 0.25 µM | 0.2 µM | –
N[C@H]1CC[C@H](Nc2c(C(=O)C3CC3)cnc3ccc(-c4cn[nH]c4)cc23)CC1 [Example 213, {4-[trans-4-Aminocyclohexylamino]-6-(1H-pyrazol-4-yl)quinolin-3-yl}(cyclopropyl)methanone] | 14 µM | 0.067 µM | 1.7 µM | 0.89 µM | 5.1 µM | –
COc1cc(-c2ccc3ncc(C(=O)C4CC4)c(N[C@H]4CC[C@H](N)CC4)c3c2)ccc1O [Example 81, {4-[trans-4-Aminocyclohexylamino]-6-(4-hydroxy-3-methoxyphenyl)quinolin-3-yl}(cyclopropyl)methanone] | 1.2 µM | 0.007 µM | 0.55 µM | 0.13 µM | 0.23 µM | –
COc1cc(-c2ccc3ncc(C(=O)C4CC4)c(NCC4CCN(C)CC4)c3c2)cc(Cl)c1O [Example 201, {6-(3-Chloro-4-hydroxy-5-methoxyphenyl)-4-[(1-methylpiperidin-4-yl)methylamino]quinolin-3-yl}(cyclopropyl)methanone] | 7.4 µM | 0.0034 µM | 1.8 µM | 0.76 µM | 0.73 µM | –
CN(C)[C@H]1CC[C@H](Nc2c(C(=O)C3CC3)cnc3cc(F)c(-c4cc(F)c(O)c(Cl)c4)cc23)CC1 [Example 295, {6-(3-Chloro-5-fluoro-4-hydroxyphenyl)-4-[trans-4-(dimethylamino)cyclohexylamino]-7-fluoroquinolin-3-yl}(cyclopropyl)methanone] | 1.2 µM | 0.027 µM | 0.39 µM | 0.42 µM | 0.31 µM | –
CCN(CC)C1CCC(Nc2c(C(C)=O)cnc3ccc(-c4cc(Cl)c(O)c(OC)c4)cc23)CC1 (stereo not shown) [Example 303, 1-{6-(3-Chloro-4-hydroxy-5-methoxyphenyl)-4-[4-(diethylamino)cyclohexylamino]quinolin-3-yl}ethanone] | 7.4 µM | 0.0061 µM | 1.7 µM | 0.39 µM | 0.35 µM | –
CN(C)CC1CCN(c2c(C(=O)C3CC3)cnc3ccc(-c4cc(F)c(O)c(Cl)c4)cc23)CC1 [Example 347, [6-(3-Chloro-5-fluoro-4-hydroxyphenyl)-4-{4-[(dimethylamino)methyl]piperidin-1-yl}quinolin-3-yl](cyclopropyl)methanone] | 1.8 µM | 0.0024 µM | 0.62 µM | 0.42 µM | 0.48 µM | –
CC(C1CCN(c2c(C(=O)C3CC3)cnc3ccc(-c4cc(F)c(O)c(Cl)c4)cc23)CC1)N(C)C (stereo not shown) [Example 269, [6-(3-Chloro-5-fluoro-4-hydroxyphenyl)-4-{4-[1-(dimethylamino)ethyl]piperidin-1-yl}quinolin-3-yl](cyclopropyl)methanone] | 1.3 µM | 0.0037 µM | 0.5 µM | 0.22 µM | 0.44 µM | –
COc1cc(-c2ccc3ncc(C(=O)C4CC4)c(N[C@H]4CC[C@H](N(C)C)CC4)c3c2)cc(Cl)c1O [Example 255, {6-(3-Chloro-4-hydroxy-5-methoxyphenyl)-4-[trans-4-(dimethylamino)cyclohexylamino]quinolin-3-yl}(cyclopropyl)methanone] | 1.9 µM | 0.0019 µM | 0.64 µM | 0.28 µM | 0.18 µM | –
